How the values were obtained:
Conditions in all cases: 72 h
U2OS [1] = assay: cell viability relative to DMSO; higher = less toxic
Calu-3 [2] = assay: as above
Caco-2 [3] = assay: as above
HepG2 [4] = assay: as above
Vero E6 [5] = assay: as above
U2OS [6] = assay: relative viability EC50 (midpoint between 100% and the lowest measured viability); higher = less toxic
Calu-3 [7] = assay: as above
Vero E6 [8] = assay: as above
U2OS [9] = assay: drug sensitivity score (DSS) for viability; higher = more toxic; extreme values may be limits of the assay
Calu-3 [10] = assay: as above
Caco-2 [11] = assay: as above
HepG2 [12] = assay: as above
Vero E6 [13] = assay: as above
Caco-2 [14] = assay: relative viability EC50 (midpoint between 100% and the lowest measured viability); higher = less toxic
HepG2 [15] = assay: as above

Row | SMILES | cell viability (U2OS [1]; 1 nM) [%] | cell viability (U2OS [1]; 10 nM) [%] | cell viability (U2OS [1]; 100 nM) [%] | cell viability (U2OS [1]; 1000 nM) [%] | cell viability (U2OS [1]; 10000 nM) [%] | cell viability (Calu-3 [2]; 1 nM) [%] | cell viability (Calu-3 [2]; 10 nM) [%] | cell viability (Calu-3 [2]; 100 nM) [%] | cell viability (Calu-3 [2]; 1000 nM) [%] | cell viability (Calu-3 [2]; 10000 nM) [%] | cell viability (Caco-2 [3]; 1 nM) [%] | cell viability (Caco-2 [3]; 10 nM) [%] | cell viability (Caco-2 [3]; 100 nM) [%] | cell viability (Caco-2 [3]; 1000 nM) [%] | cell viability (Caco-2 [3]; 10000 nM) [%] | cell viability (HepG2 [4]; 1 nM) [%] | cell viability (HepG2 [4]; 10 nM) [%] | cell viability (HepG2 [4]; 100 nM) [%] | cell viability (HepG2 [4]; 1000 nM) [%] | cell viability (HepG2 [4]; 10000 nM) [%] | cell viability (Vero E6 [5]; 1 nM) [%] | cell viability (Vero E6 [5]; 10 nM) [%] | cell viability (Vero E6 [5]; 100 nM) [%] | cell viability (Vero E6 [5]; 1000 nM) [%] | cell viability (Vero E6 [5]; 10000 nM) [%] | relative viability EC50 (U2OS [6]) [µM] | relative viability EC50 (Calu-3 [7]) [µM] | relative viability EC50 (Vero E6 [8]) [µM] | drug sensitivity score (U2OS [9]) | drug sensitivity score (Calu-3 [10]) | drug sensitivity score (Caco-2 [11]) | drug sensitivity score (HepG2 [12]) | drug sensitivity score (Vero E6 [13]) | relative viability EC50 (Caco-2 [14]) [µM] | relative viability EC50 (HepG2 [15]) [µM]
1 | COc1ccc(-c2csc(NC(=O)[C@H]3CCCCN3S(=O)(=O)c3ccc(C)cc3)n2)cc1 [ML277] | 98.4 | 98.1 | 101 | 94.2 | 90.1 | 91 | 104 | 92.1 | 92.6 | 99.2 | 89.5 | 93.2 | 97.8 | 90.6 | 69.2 | 97.7 | 99.7 | 112 | 101 | 60.1 | 109 | 102 | 105 | 105 | 99.9 | > 10 | > 10 | > 10 | 0 | 0 | 2.6 | 1.9 | 0 |  | 
2 | Nc1nccc(-c2ccc3noc(-c4ccc(Cl)cc4)c3c2)n1 [PIM-1-Inhibitor-2] | 98.3 | 104 | 93.2 | 99.6 | 93.6 | 100 | 91.4 | 99 | 97 | 88.8 | 98 | 97 | 91.9 | 102 | 98.2 | 96.8 | 94.2 | 92.6 | 92.7 | 57.7 | 97.7 | 103 | 104 | 98.5 | 99.7 | > 10 | > 10 | > 10 | 0 | 0 | 0 | 3.4 | 0 | > 10 | 
3 | N#CSc1cc(SC#N)c(N)nc1N [PR-619] | 101 | 96.4 | 99 | 94.1 | 90.6 | 109 | 94.5 | 93.9 | 107 | 94.8 | 93 | 91.5 | 93.6 | 92.2 | 85.4 | 104 | 120 | 108 | 107 | 55.4 | 92.3 | 104 | 103 | 99.6 | 77.3 | > 10 | > 10 | > 10 | 0 | 0 | 0 | 1.9 | 0.8 | > 10 | 
4 | FC(F)c1nc2ccccc2n1-c1nc(N2CCOCC2)nc(N2CCOCC2)n1 [ZSTK-474] | 96 | 97.4 | 98.1 | 95.6 | 60 | 101 | 102 | 95.3 | 84 | 40.6 | 102 | 99.2 | 97.9 | 68.2 | 27.1 | 105 | 106 | 98.5 | 75.6 | 34.3 | 95.2 | 101 | 90.3 | 69.8 | 42.4 |  | 1.51 | 0.768 | 2.7 | 5.6 | 7.9 | 6.9 | 6.8 | 1.14 | 1.25

Reference: the supplement of paper PMC13380429
